16 compounds from patent publication US7462614B2, “Imidazotriazine compounds” (Smithkline Beecham Corporation, priority 2003, dated 2008) can be followed below.

The target in this assay is T1, truncated human PLK1 (kinase domain) (Homo sapiens, UniProt P53350).
T1 construct: made in house; host or cells: baculovirus-infected T. ni insect cells
In words: Assay for Inhibition of PLK1 (33P SPA enzyme activity). The settings on record: 1 μM ATP, 2 nM enzyme; read-out: Ave pIC50 PLK Enzyme Inhibition (converted). In kind it is biochemical. On the procedure: I. Assay for Inhibition of PLK1
A. Preparation of 6× N-Terminal His-Tagged PLK Kinase Domain
All procedures are performed at 4° C. Cells are lysed in 25 mM HEPES, 200 mM NaCl, 25 mM imidazole; pH 8.0. The homogenate is centrifuged at 14K rpm in a SLA-1500 rotor for 40 min and the supernatant filtered through a 1.2 micron filter. The supernatant is loaded onto a Nickel chelating Sepharose (Amersham Pharmacia) column and washed with 25 mM HEPES, 500 mM NaCl, 25 mM imidazole; pH 8.0. […] PLK is concentrated using a 10 kDa molecular weight cutoff membrane and then loaded onto a Superdex 75 gel filtration (Amersham BioSciences) column equilibrated in 25 mM HEPES, 1 mM DTT, 500 mM NaCl; pH 8.0. Fractions containing PLK are determined by SDS-PAGE. PLK is pooled, aliquoted and stored at […]. Samples are quality controlled using mass spectrometry.
B. Enzyme Activity±Inhibitors is Determined As Follows:
Compounds are added to the plate (1 μL in 100% DMSO).
Immediately upon addition of enzyme and thorough mixing, add 20 uL per well into 384-well white plates containing compounds and controls. […] The enzymatic reaction is stopped with 50 μl of bead mix (50 mM EDTA, 2 mg/ml Streptavidin-coated SPA beads in Standard Dulbecco's PBS (without Mg^2+and Ca^2+), and 60 μM ATP).

Molecules are shown by their SMILES. A value given as a limit tells only on which side of the number the result lay.

T1 sequence (P53350 21-346): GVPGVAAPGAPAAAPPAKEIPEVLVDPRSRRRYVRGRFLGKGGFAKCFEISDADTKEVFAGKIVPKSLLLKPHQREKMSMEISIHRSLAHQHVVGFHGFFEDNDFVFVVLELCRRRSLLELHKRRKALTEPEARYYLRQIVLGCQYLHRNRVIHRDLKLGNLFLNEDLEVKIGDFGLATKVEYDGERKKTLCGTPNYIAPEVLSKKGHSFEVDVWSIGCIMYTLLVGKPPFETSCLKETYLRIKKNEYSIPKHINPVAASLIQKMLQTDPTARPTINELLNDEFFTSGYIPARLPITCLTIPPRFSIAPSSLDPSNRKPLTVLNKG

Take `COc1ccc(Nc2ncc3c(C)nc(-c4cccs4)n3n2)cc1` [Example 83, 5-Methyl-N-[4-(methyloxy)phenyl]-7-(2-thienyl)imidazo[5,1-f][1,2,4]triazin-2-amine]: the IC50 was 0.1 to 10 µM. To `COc1ccc(Nc2ncc3c(C)nc(C4CC4)n3n2)cc1` [Example 84, 7-Cyclopropyl-5-methyl-N-[4-(methyloxy)phenyl]-imidazo[5,1-f][1,2,4]triazin-2-amine] belongs 0.1 to 10 µM; to `COc1ccc(Nc2ncc3c(C)nc(C4CCCCC4)n3n2)cc1` [Example 85, 7-Cyclohexyl-5-methyl-N-[4-(methyloxy)phenyl]imidazo[5,1-f][1,2,4]triazin-2-amine], 0.1 to 10 µM. For `COc1ccc(Nc2ncc3c(C)nc(-c4ccccc4F)n3n2)cc1` [Example 86, 7-(2-FluorophenylFluorophenyl)-5-methyl-N-[4-(methyloxy)phenyl]imidazo[5,1-f][1,2,4]triazin-2-amine], the IC50 is 0.1 to 10 µM.

For the compound `COc1ccc(Nc2ncc3c(C)nc(-c4ccc(OC)cc4)n3n2)cc1` [Example 87, 5-Methyl-N,7-bis[4-(methyloxy)phenyl]imidazo[5,1-f][1,2,4]triazin-2-amine], the IC50 is 0.1 to 10 µM. To `COc1ccc(Nc2ncc3c(C)nc(Cc4ccccc4)n3n2)cc1` [Example 88, 5-Methyl-N-[4-(methyloxy)phenyl]-7-(phenylmethyl)imidazo[5,1-f][1,2,4]triazin-2-amine] belongs 0.1 to 10 µM; to `COc1ccc(Nc2ncc3c(C)nc(-c4cccc(F)c4)n3n2)cc1` [Example 89, 7-(3-Fluorophenyl)-5-methyl-N-[4-(methyloxy)phenyl]imidazo[5,1-f][1,2,4]triazin-2-amine], 0.1 to 10 µM; to `COc1cc(Nc2ncc3c(C)nc(C4CCCCC4)n3n2)cc(OC)c1OC` [Example 90, 7-Cyclohexyl-5-methyl-N-[3,4,5-tris(methyloxy)phenyl]imidazo[5,1-f][1,2,4]triazin-2-amine], 0.1 to 10 µM. For `COc1ccc(Nc2ncc3c(C)nc(CC4CCCCC4)n3n2)cc1` [Example 91, 7-(Cyclohexylmethyl)-5-methyl-N-[4-(methyloxy)phenyl]-imidazo[5,1-f][1,2,4]triazin-2-amine] the value was 0.1 to 10 µM; for `COc1ccc(Nc2ncc3c(C)nc(-c4ccccc4)n3n2)cc1OC` [Example 92, N-[3,4-Bis(methyloxy)phenyl]-5-methyl-7-phenylimidazo[5,1-f][1,2,4]triazin-2-amine], 0.1 to 10 µM. For `COc1cc(Nc2ncc3c(C)nc(-c4ccccc4)n3n2)cc(OC)c1` [Example 93, N-[3,5-Bis(methyloxy)phenyl]-5-methyl-7-phenylimidazo[5,1-f][1,2,4]triazin-2-amine] the value was 0.1 to 10 µM; for `CC(=O)Nc1ccc(Nc2ncc3c(C)nc(-c4ccccc4)n3n2)cc1` [Example 94, N-{4-[(5-Methyl-7-phenylimidazo[5,1-f][1,2,4]triazin-2-yl)amino]phenyl}acetamide], 0.1 to 10 µM. Consider `CSc1ccc(Nc2ncc3c(C)nc(-c4ccccc4)n3n2)cc1` [Example 95, 5-Methyl-N-[4-(methylthio)phenyl]-7-phenylimidazo[5,1-f][1,2,4]triazin-2-amine], for which the IC50 is 0.1 to 10 µM. To `Cc1nc(-c2ccccc2)n2nc(Nc3ccc(OCCN(C)C)cc3)ncc12` [Example 96, N-(4-{[2-(Dimethylamino)ethyl]oxy}phenyl)-5-methyl-7-phenylimidazo[5.1-f][1,2,4]triazin-2-amine] belongs 0.1 to 10 µM; to `CC(=O)N1CCc2cc(Nc3ncc4c(C)nc(-c5ccccc5)n4n3)ccc21` [Example 99, N-(1-Acetyl-2,3-dihydro-1H-indol-5-yl)-5-methyl-7-phenylimidazo[5,1-f][1,2,4]triazin-2-amine], 0.1 to 10 µM; to `Cc1nc(-c2ccccc2)n2nc(NC3CCCCC3)ncc12` [Example 100, N-Cyclohexyl-5-methyl-7-phenylimidazo[5,1-f][1,2,4]triazin-2-amine], over 10 µM.
